Experimental data taken from patent publication US9018206B2, “Carboxamide compounds and their use as calpain inhibitors” (AbbVie Deutschland GmbH & Co. KG, priority 2009, dated 2015).

Legend:
Assay type in all cases: biochemical
[1] = target: T1, cathepsin L isolated from human liver (Homo sapiens, UniProt P07711); experiment: Cathepsin L enzyme inhibition in vitro (kinetic fluorescence assay); details: Ki(cathepsin L)/Ki(calpain) ratio
T1 construct: cathepsin L—isolated from human liver; purchased Calbiochem 219402; host or cells: human liver (tissue-derived)
Method: (§1) Testing for blockade of the corresponding enzymic activities was carried out by means of kinetic fluorescence assays (excitation 390 nm, emission 460 nm).
(§2) Apparent Ki values were calculated from the experimentally determined IC50 values by the Cheng-Prussoff relation assuming a reversible competitive enzyme inhibition. The Km values of the substrates used under the assay conditions indicated above were: 90 μM (Z-Phe-Arg-AMC, cathepsin B), 10 μM (Z-Gly-Pro-Arg-AMC, cathepsin K), 2 μM (Z-Phe-Arg-AMC, cathepsin L), and 30 μM (Z-Val-Val-Arg-AMC, cathepsin S).
(§3) The indicated Ki values are averages of the inhibition constants calculated on the basis of 2 to 4 independent dose-effect plots.
(§4) • 20 nM calpain-I—isolated from human erythrocytes (Calbiochem #208713), 100 μM Suc-Leu-Tyr-AMC (Bachem #I-1355) as substrate in buffer with 62 mM imidazole, 0.3 mM CaCl2, 0.10% CHAPS, 0.05% BSA, 1 mM DTT at pH 7.3 and room temperature. 1. Cathepsin B: • 0.25 nM cathepsin B—isolated from human liver (Calbiochem #219362), 100 μM Z-Phe-Arg-AMC (Bachem #I-1160) as substrate 50 mM MES, 2 mM EDTA, 0.05% Brij 35, 2.5 mM L-cysteine, pH 6.0, room temperature. 3. Cathepsin K: • 3 nM cathepsin K activated from recombinant human procathepsin K from E. coli (Calbiochem #342001), 10 μM Z-Gly-Pro-Arg-AMC (Biomol #P-142) as substrate in 50 mM MES, 2 mM EDTA, 0.05% Brij 35, 2.5 mM L-cysteine, pH 6.0, room temperature. 4. Cathepsin L: • 1 nM cathepsin L—isolated from human liver (Calbiochem #219402), 2 μM Z-Phe-Arg-AMC (Bachem #I-1160) as substrate in 50 mM MES, 2 mM EDTA, 0.05% Brij 35, 2.5 mM L-cysteine, pH 6.0, room temperature. 5. Cathepsin S: • 0.5 nM recombinant human cathepsin S from E. coli (Calbiochem #219343), 20 μM Z-Val-Val-Arg-AMC (Bachem #I-1540) as substrate in 50 mM MES, 2 mM EDTA, 0.05% Brij 35, 2.5 mM L-cysteine, pH 6.0, room temperature.

[2] = target: T2, calpain-I isolated from human erythrocytes (Homo sapiens, UniProt P07384); experiment: Calpain I enzyme inhibition in vitro (kinetic fluorescence assay); details: apparent Ki from IC50 (Cheng-Prussoff); 20 nM calpain-I, 100 μM Suc-Leu-Tyr-AMC, pH 7.3, room temperature
T2 construct: calpain-I—isolated from human erythrocytes; purchased Calbiochem 208713; host or cells: human erythrocytes (tissue-derived)
T2 sequence (P07384 1-714): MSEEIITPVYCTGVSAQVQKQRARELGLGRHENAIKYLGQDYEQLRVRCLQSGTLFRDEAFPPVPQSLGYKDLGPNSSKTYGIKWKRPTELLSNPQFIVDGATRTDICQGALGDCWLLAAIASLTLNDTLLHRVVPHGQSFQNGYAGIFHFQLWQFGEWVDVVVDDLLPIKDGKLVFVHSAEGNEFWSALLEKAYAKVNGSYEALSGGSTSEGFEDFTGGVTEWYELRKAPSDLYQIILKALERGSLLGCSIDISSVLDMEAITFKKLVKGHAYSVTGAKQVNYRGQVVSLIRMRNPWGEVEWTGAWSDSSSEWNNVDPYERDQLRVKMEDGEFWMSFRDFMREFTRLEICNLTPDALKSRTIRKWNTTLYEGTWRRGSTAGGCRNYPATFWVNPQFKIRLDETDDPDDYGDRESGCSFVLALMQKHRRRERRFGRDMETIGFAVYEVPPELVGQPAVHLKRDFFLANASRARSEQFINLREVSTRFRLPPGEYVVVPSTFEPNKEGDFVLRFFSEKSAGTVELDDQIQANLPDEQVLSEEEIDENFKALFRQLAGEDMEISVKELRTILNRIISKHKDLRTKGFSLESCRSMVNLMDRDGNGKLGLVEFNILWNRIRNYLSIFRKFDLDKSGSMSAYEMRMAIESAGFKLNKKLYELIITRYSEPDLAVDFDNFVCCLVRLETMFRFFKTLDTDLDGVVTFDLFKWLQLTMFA
T2 sequence (P04632 1-268 partner): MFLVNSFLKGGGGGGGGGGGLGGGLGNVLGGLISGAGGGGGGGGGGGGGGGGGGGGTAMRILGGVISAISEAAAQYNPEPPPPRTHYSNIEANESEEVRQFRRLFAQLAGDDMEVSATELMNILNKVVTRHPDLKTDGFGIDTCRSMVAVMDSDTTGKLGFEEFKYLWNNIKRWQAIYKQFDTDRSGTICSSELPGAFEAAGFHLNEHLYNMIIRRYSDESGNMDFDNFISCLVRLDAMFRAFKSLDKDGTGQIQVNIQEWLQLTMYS
Method: as §1, §2, §3, §4

[3] = target: T3, cathepsin B isolated from human liver (Homo sapiens, UniProt P07858); experiment: Cathepsin B enzyme inhibition in vitro (kinetic fluorescence assay); details: Ki(cathepsin B)/Ki(calpain) ratio
T3 construct: cathepsin B—isolated from human liver; purchased Calbiochem 219362; host or cells: human liver (tissue-derived)
Method: as §1, §2, §3, §4

[4] = target: T4, cathepsin K activated from recombinant human procathepsin K (Homo sapiens, UniProt P43235); experiment: Cathepsin K enzyme inhibition in vitro (kinetic fluorescence assay); details: Ki(cathepsin K)/Ki(calpain) ratio
T4 construct: purchased Calbiochem 342001; host or cells: E. coli
T4 sequence (P43235 115-329): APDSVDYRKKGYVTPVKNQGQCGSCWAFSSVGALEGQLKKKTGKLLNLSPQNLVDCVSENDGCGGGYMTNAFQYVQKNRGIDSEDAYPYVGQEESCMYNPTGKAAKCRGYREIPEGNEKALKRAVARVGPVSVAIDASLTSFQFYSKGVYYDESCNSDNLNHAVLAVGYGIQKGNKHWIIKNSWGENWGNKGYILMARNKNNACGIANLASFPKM
Method: as §1, §2, §3, §4

[5] = target: T5, recombinant human cathepsin S (Homo sapiens, UniProt P25774); experiment: Cathepsin S enzyme inhibition in vitro (kinetic fluorescence assay); details: Ki(cathepsin S)/Ki(calpain) ratio
T5 construct: purchased Calbiochem 219343; host or cells: E. coli
Method: as §1, §2, §3, §4

T1 sequence (P07711 114-333): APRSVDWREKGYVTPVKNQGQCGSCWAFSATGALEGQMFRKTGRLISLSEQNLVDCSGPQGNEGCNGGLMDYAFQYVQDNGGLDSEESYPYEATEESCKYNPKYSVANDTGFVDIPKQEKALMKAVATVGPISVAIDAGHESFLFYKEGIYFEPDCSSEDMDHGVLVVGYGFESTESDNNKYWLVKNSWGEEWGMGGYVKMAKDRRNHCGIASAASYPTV
T5 sequence (P25774 115-331): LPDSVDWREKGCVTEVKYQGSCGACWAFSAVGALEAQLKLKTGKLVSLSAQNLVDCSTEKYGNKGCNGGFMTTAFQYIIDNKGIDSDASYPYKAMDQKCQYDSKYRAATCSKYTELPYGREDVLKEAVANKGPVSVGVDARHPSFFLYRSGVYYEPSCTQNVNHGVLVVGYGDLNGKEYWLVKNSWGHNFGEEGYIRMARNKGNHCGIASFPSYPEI

Row | Compound | Sel cat. L [1] | Ki [2] [nM] | Sel cat. B [3] | Sel cat. K [4] | Sel cat. S [5]
1 | C[C@H]1C[C@H](C(=O)NC(Cc2ccccc2)C(=O)C(N)=O)N(Cc2ccccc2)C1=O (stereo partly drawn) [Example 19, (2R,4S)—N-(4-Amino-3,4-dioxo-1-phenylbutan-2-yl)-1-benzyl-4-methyl-5-oxopyrrolidine-2-carboxamide] | ++ (10<Ki(cathepsin B)/Ki(calpain)≦30) | < 50 | ++ (10<Ki(cathepsin B)/Ki(calpain)≦30) | – | –
2 | CCNC(=O)C(=O)C(Cc1ccccc1)NC(=O)[C@H]1CCC(=O)N1Cc1c(F)cccc1F (mixture of isomers) [Example 49, (2R)-1-(2,6-Difluorobenzyl)-N-(4-(ethylamino)-3,4-dioxo-1-phenylbutan-2-yl)-5-oxopyrrolidine-2-carboxamide] | ++ (10<Ki(cathepsin B)/Ki(calpain)≦30) | 100 to 600 | +++ (Ki(cathepsin B)/Ki(calpain) ratio of >30) | – | –
3 | O=C(NCCCc1ccccn1)C(=O)C(Cc1ccccc1)NC(=O)[C@H]1CCC(=O)N1Cc1ccccc1 (mixture of isomers) [Example 32, (2R)-1-Benzyl-N-(3,4-dioxo-1-phenyl-4-(3-(pyridin-2-yl)propylamino)butan-2-yl)-5-oxopyrrolidine-2-carboxamide] | – | 50 to 100 | ++ (10<Ki(cathepsin B)/Ki(calpain)≦30) | + (5<Ki(cathepsin K)/Ki(calpain)≦10) | ++ (30<Ki(cathepsin B)/Ki(calpain)≦100)
4 | O=C(NC1CC1)C(=O)C(Cc1ccccc1)NC(=O)[C@H]1CCC(=O)N1Cc1ccc(C(F)(F)F)cc1 (mixture of isomers) [Example 58, (2R)—N-(4-(Cyclopropylamino)-3,4-dioxo-1-phenylbutan-2-yl)-5-oxo-1-(4-(trifluoromethyl)benzyl)pyrrolidine-2-carboxamide] | – | 100 to 600 | + (5<Ki(cathepsin B)/Ki(calpain)≦10) | + (5<Ki(cathepsin K)/Ki(calpain)≦10) | ++ (30<Ki(cathepsin B)/Ki(calpain)≦100)
5 | NC(=O)C(=O)C(Cc1ccccc1)NC(=O)[C@H]1CCC(=O)N1Cc1cccc(OC(F)(F)F)c1 (stereo partly drawn) [Example 13, (2R)—N-(4-Amino-3,4-dioxo-1-phenylbutan-2-yl)-5-oxo-1-[3-(trifluoromethoxy)-benzyl]pyrrolidine-2-carboxamide] | – | 100 to 600 | + (5<Ki(cathepsin B)/Ki(calpain)≦10) | +++ (Ki(cathepsin K)/Ki(calpain) ratio of >30) | ++ (30<Ki(cathepsin B)/Ki(calpain)≦100)
6 | O=C(NC1CC1)C(=O)C(Cc1ccccc1)NC(=O)[C@H]1CCC(=O)N1Cc1c(F)cccc1F (mixture of isomers) [Example 48, (2R)—N-(4-(Cyclopropylamino)-3,4-dioxo-1-phenylbutan-2-yl)-1-(2,6-difluorobenzyl)-5-oxopyrrolidine-2-carboxamide] | ++ (10<Ki(cathepsin B)/Ki(calpain)≦30) | 100 to 600 | +++ (Ki(cathepsin B)/Ki(calpain) ratio of >30) | – | –
7 | COc1cccc(CN2C(=O)CC[C@@H]2C(=O)NC(Cc2ccccc2)C(=O)C(N)=O)c1 (stereo partly drawn) [Example 6, (2R)—N-(4-Amino-3,4-dioxo-1-phenylbutan-2-yl)-1-(3-methoxybenzyl)-5-oxopyrrolidine-2-carboxamide] | – | < 50 | + (5<Ki(cathepsin B)/Ki(calpain)≦10) | +++ (Ki(cathepsin K)/Ki(calpain) ratio of >30) | ++ (30<Ki(cathepsin B)/Ki(calpain)≦100)
8 | O=C(NCCCc1ccccc1)C(=O)C(Cc1ccccc1)NC(=O)[C@H]1CCC(=O)N1Cc1ccccc1 (mixture of isomers) [Example 33, (2R)-1-Benzyl-N-(3,4-dioxo-1-phenyl-4-(3-phenylpropylamino)butan-2-yl)-5-oxopyrrolidine-2-carboxamide] | – | 50 to 100 | ++ (10<Ki(cathepsin B)/Ki(calpain)≦30) | ++ (10<Ki(cathepsin B)/Ki(calpain)≦30) | ++ (30<Ki(cathepsin B)/Ki(calpain)≦100)
